Target: T1, TREK-1 (TWIK-related potassium channel-1) (Rattus norvegicus, UniProt Q920B6)
T1 construct: gene Kcnk2
T1 sequence (Q920B6 1-426): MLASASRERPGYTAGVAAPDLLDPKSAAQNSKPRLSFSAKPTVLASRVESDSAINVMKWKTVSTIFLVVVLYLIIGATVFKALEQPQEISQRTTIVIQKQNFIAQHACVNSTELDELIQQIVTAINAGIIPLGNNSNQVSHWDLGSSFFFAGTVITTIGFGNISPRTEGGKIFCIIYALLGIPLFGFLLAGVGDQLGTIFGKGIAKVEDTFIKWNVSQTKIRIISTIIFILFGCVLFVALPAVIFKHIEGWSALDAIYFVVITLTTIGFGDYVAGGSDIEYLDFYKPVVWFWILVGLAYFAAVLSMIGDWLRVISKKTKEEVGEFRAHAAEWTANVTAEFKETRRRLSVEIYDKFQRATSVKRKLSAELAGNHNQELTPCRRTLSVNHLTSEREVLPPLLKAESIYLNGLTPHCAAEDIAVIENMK
Assay: whole-cell and inside-out single-channel patch clamp of TREK-1 overexpressed in HEK-293 cells
Assay type: cell-based

CCCCN1CCCCC1C(=O)Nc1c(C)cccc1C (stereo not shown) [bupivacaine]
IC50: 302 ± 17.6 µM
